The text below walks through data of patent US20190119300A1, “SUBSTITUTED AND FUSED 6-MEMBERED PROTEASE ACTIVATED RECEPTOR 4 (PAR-4) ANTAGONISTS” (Vanderbilt University, priority 2016, published 2019).

Structures are written as SMILES. A value given as a limit tells only on which side of the number the result lay.

The target in the experiment is T1, PAR-4 (Homo sapiens, UniProt Q96RI0).
T1 construct: endogenous in cells; host or cells: washed platelets
T1 sequence (Q96RI0 18-385): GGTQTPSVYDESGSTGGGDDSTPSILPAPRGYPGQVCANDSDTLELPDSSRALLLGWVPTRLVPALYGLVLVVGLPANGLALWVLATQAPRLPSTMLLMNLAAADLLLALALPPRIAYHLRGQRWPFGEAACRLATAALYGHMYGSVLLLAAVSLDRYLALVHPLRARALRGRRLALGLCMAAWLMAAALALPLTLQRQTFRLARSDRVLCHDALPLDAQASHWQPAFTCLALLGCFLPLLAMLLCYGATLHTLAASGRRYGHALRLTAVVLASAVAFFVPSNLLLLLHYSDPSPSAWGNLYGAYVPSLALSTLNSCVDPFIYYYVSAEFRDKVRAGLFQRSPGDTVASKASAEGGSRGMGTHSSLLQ
Put plainly: PAC-1 binding assay, washed platelets stimulated with PAR-4-AP (flow cytometry). Type of experiment: cell-based. To be noted: PAR-4-AP stimulation; for remaining activity at 10 µM: 10 μM antagonist, 100% = DMSO control stimulated, read-out: PAR-4 AP % Max PAC-1 binding (10 μM); for IC50: read-out: PAR-4 AP % Max PAC-1 binding (IC50 [M]). The method, then:
PAC-1 Binding assay: 60 μL of washed platelets (Tyrodes buffer containing 0.1% BSA) at a concentration of 0.15×10^8 platelets/mL were added to 5 mL round bottom polystyrene tubes (BD, Franklin Lakes, N.J.). FITC conjugated PAC-1 (BD Biosciences, San Jose, Calif.) antibody was diluted (to the manufacturers recommended concentration) in Tyrode's buffer containing 0.1% BSA. 40 μL of diluted antibody was added to the platelets and allowed to incubate for 5 minutes. Platelets were pre-treated with indicated concentrations of antagonist or DMSO control for 20 minutes (the final DMSO concentration was 0.5%) followed by addition of PAR-1-AP (GL Biochem, Shanghai, China), PAR-4-AP, or gamma-thrombin for 10 minutes. Platelet activity was quenched by the addition ice cold 1.5% paraformaldehyde followed by dilution in 1× phosphate buffered saline. Platelets were stored up to 18 hours at 4° C. before flow cytometric analysis. Analysis was carried out on a BD FACS Canto II or BD LSRII (Franklin Lakes, N.J.). Fluorescent intensity was determined for at least 20,000 events within the platelet gate (forward scatter versus side scatter). Data was collected and analyzed via FACS DiVa or FlowJo software. Flow cytometric data analysis was conducted by the following method. The DMSO-vehicle treated control was subtracted from each data point. 100% response for PAR-4-AP was determined for each individual as the DMSO treated control stimulated with PAR-4-AP, PAR-1-AP, or gamma-thrombin. Data was plotted in GraphPad PRISM v.5.0. For compounds with a notable reduction in PAC-1 binding response, dose response curves and IC50 values were generated using the inhibitory sigmoidal dose response ‘variable slope’ parameter. Results were plotted as mean±SEM.

For the compound `COc1nn2cc(-c3cccc(F)c3)nc2s1` [Example B7], the remaining activity at 10 µM is 1.47% and the 50% inhibitory concentration (IC50) (in general, the point on the concentration scale where inhibition reaches its midpoint) came out at 6.85e-07 M.

`COc1nn2cc(-c3ccccc3F)nc2s1` [Example B30]: the remaining activity at 10 µM is -0.14% and the half-maximal inhibitory concentration (IC50) came to 5.26e-07 M.

In the case of `CCOc1nn2cc(-c3c(F)cccc3F)nc2s1` [Example B32], the remaining activity at 10 µM was found to be 3.47% and the concentration for half-maximal inhibition (IC50) stood at 1.17e-06 M.

`COc1cccc(-c2cn3nc(OC)sc3n2)c1` [Example B53]: the remaining activity at 10 µM is -0.071% and the IC50 stood at 2.91e-07 M.

With `COc1nn2cc(-c3ccccc3Cl)nc2s1` [Example B21], the remaining activity at 10 µM was found to be 0.74% and the 50% inhibitory concentration (IC50) is 4.54e-07 M.

`COc1nn2cc(-c3ccc(O)cc3O)nc2s1` [Example B13]: the remaining activity at 10 µM came out at 98.4%.

On to `COc1nn2cc(-c3ccccc3O)nc2s1` [Example B14], for which the remaining activity at 10 µM worked out at 92.7%.

As for `COc1nn2cc(-c3ccc(Oc4ccccc4)cc3)nc2s1` [Example B9], the remaining activity at 10 µM was -0.09% and the IC50 was determined as 1.43e-07 M.

On to `CC(C)COc1nn2cc(-c3cccc(Cl)c3)nc2s1` [Example B37], for which the remaining activity at 10 µM amounted to 97.3%.

On to `COc1nn2cc(-c3ccc(C(F)(F)F)cc3)nc2s1` [Example B1], for which the remaining activity at 10 µM was -1.91%.

On to `COc1nn2cc(-c3ccc(F)cc3)nc2s1` [Example B52], for which the remaining activity at 10 µM came to 0.063% and the IC50 came out at 4.06e-07 M.

With `CC(C)Oc1nn2cc(-c3ccc(C(F)(F)F)cc3)nc2s1` [Example B40], the remaining activity at 10 µM was found to be 81.5%.

As to `COc1nn2cc(-c3ccc(Cl)c([N+](=O)[O-])c3)nc2s1` [Example B26], the remaining activity at 10 µM came out at 1.52% and the half-maximal inhibitory concentration (IC50) was 9.95e-08 M.

Turning to `CCOc1nn2cc(-c3cccc(Cl)c3)nc2s1` [Example B35], the remaining activity at 10 µM was 2.31% and the IC50 is 1.24e-06 M.

For `COc1nn2cc(-c3ccc(Br)cc3F)nc2s1` [Example B6], the remaining activity at 10 µM is 2.82% and the IC50 amounted to 1.96e-07 M.

For `COc1nn2cc(-c3ccccc3OC)nc2s1` [Example B15], the remaining activity at 10 µM came to 8.45% and the concentration for half-maximal inhibition (IC50) turned out to be 3.95e-06 M.

Take `COc1nn2cc(-c3ccc(N4CCOCC4)cc3)nc2s1` [Example B46]: the remaining activity at 10 µM was found to be 10.4%.

For `CCOc1nn2cc(-c3ccc(C(F)(F)F)cc3)nc2s1` [Example B39], the remaining activity at 10 µM came out at 2.21% and the half-inhibitory concentration (IC50) stood at 6.48e-07 M.

Regarding `COc1nn2cc(-c3ccc4ncn(C)c4c3)nc2s1` [Example B45], the remaining activity at 10 µM came out at 48.1%.

For the compound `COc1nn2cc(-c3ccc(Cl)c(Cl)c3)nc2s1` [Example B20], the remaining activity at 10 µM was -0.92%.

`COc1nn2cc(-c3cccc([N+](=O)[O-])c3)nc2s1` [Example B50]: the remaining activity at 10 µM is 6.82% and the IC50 was > 1e-06 M.

For `COc1nn2cc(-c3ccc(S(C)(=O)=O)cc3)nc2s1` [Example B11], the remaining activity at 10 µM was 4.19% and the 50% inhibitory concentration (IC50) came to 1.09e-06 M.

On to `FC(F)(F)c1ccc(-c2cn3nc(OC4CCCC4)sc3n2)cc1` [Example B42], for which the remaining activity at 10 µM stood at 114%.

In the case of `COc1nn2cc(-c3ccc(F)c(C(F)(F)F)c3)nc2s1` [Example B29], the remaining activity at 10 µM is -0.45%.

Turning to `COc1nn2cc(-c3ccccc3C(F)(F)F)nc2s1` [Example B2], the remaining activity at 10 µM is -0.14% and the IC50 came out at 1.33e-06 M.

As for `COc1nn2cc(-c3ccc(OC(F)(F)F)cc3)nc2s1` [Example B27], the remaining activity at 10 µM was -0.2%.

On to `CC(C)Oc1nn2cc(-c3cccc(Cl)c3)nc2s1` [Example B36], for which the remaining activity at 10 µM turned out to be 63.2%.

As to `CC(C)COc1nn2cc(-c3c(F)cccc3F)nc2s1` [Example B44], the remaining activity at 10 µM worked out at 93.7%.

In the case of `COc1nn2cc(-c3c(F)cccc3F)nc2s1` [Example B4], the remaining activity at 10 µM was determined as 1.29%.

Turning to `Fc1cccc(F)c1-c1cn2nc(OC3CCCC3)sc2n1` [Example B34], the remaining activity at 10 µM worked out at 109%.

Consider `COc1nn2cc(-c3ccccc3)nc2s1` [Example B8], for which the remaining activity at 10 µM was determined as 1.48% and the concentration for half-maximal inhibition (IC50) came to 7.08e-07 M.

With `COc1nn2cc(-c3ccccc3OCc3csc(-c4ccccc4)n3)nc2s1` [Example B48], the remaining activity at 10 µM came out at 96%.

Consider `CC(C)Oc1nn2cc(-c3c(F)cccc3F)nc2s1` [Example B33], for which the remaining activity at 10 µM is 102%.

As to `COc1nn2cc(-c3ccc(-c4ccccc4)cc3)nc2s1` [Example B51], the remaining activity at 10 µM worked out at 72.7%.

For the compound `COc1nn2cc(-c3ccc(Cl)cc3)nc2s1` [Example B19], the remaining activity at 10 µM worked out at 0.02%.

As to `COc1nn2cc(-c3ccc(O)cc3)nc2s1` [Example B16], the remaining activity at 10 µM is 91.2%.

Consider `COc1nn2cc(-c3ccc(C#N)cc3)nc2s1` [Example B17], for which the remaining activity at 10 µM came to 0.93% and the IC50 was 8.95e-07 M.

On to `COc1nn2cc(-c3ccc(F)cc3F)nc2s1` [Example B5], for which the remaining activity at 10 µM was 0.21% and the IC50 was determined as 1.75e-07 M.

With `COc1nn2cc(-c3ccccn3)nc2s1` [Example B18], the remaining activity at 10 µM is 18.6% and the half-maximal inhibitory concentration (IC50) was found to be 2.22e-05 M.

Turning to `CC(C)COc1nn2cc(-c3ccc(C(F)(F)F)cc3)nc2s1` [Example B41], the remaining activity at 10 µM was 102%.

With `COc1nn2cc(-c3ccc(OCc4csc(-c5ccccc5)n4)cc3)nc2s1` [Example B43, 2-Methoxy-6-(4-((2-phenylthiazol-4-yl)methoxy)phenyl)imidazo[2,1-b][1,3,4]thiadiazole], the remaining activity at 10 µM is 0.91% and the IC50 was found to be 1.33e-06 M.

With `Clc1cccc(-c2cn3nc(OC4CCCC4)sc3n2)c1` [Example B38], the remaining activity at 10 µM amounted to 99.5%.

Regarding `COc1nn2cc(-c3cccc(C(F)(F)F)c3)nc2s1` [Example B3], the remaining activity at 10 µM was -0.26%.

Turning to `COc1ccc(-c2cn3nc(OC)sc3n2)cc1` [Example B10], the remaining activity at 10 µM was -1.59% and the half-maximal inhibitory concentration (IC50) came to 6.25e-07 M.

Take `COc1nn2cc(-c3ccccc3[N+](=O)[O-])nc2s1` [Example B49]: the remaining activity at 10 µM amounted to 17.1% and the IC50 was > 1e-06 M.

Consider `COc1nn2cc(-c3ccc([N+](=O)[O-])cc3)nc2s1` [Example B31], for which the remaining activity at 10 µM was 1.6% and the IC50 worked out at 2.07e-07 M.

For the compound `COc1nn2cc(-c3ccc(-c4cccs4)cc3)nc2s1` [Example B24], the remaining activity at 10 µM is 3.35% and the half-maximal inhibitory concentration (IC50) was 1.63e-07 M.

For the compound `COc1nn2cc(-c3cccnc3)nc2s1` [Example B22], the remaining activity at 10 µM stood at 81.3%.
